Measured values as given in ChEMBL document CHEMBL4715842, “Sulfonamide/sulfamate switch with a series of piperazinylureido derivatives: Synthesis, kinetic and in silico evaluation as carbonic anhydrase isoforms I, II, IV, and IX inhibitors” (Eur J Med Chem, 2020).

Tests used:
Carbonic anhydrase 4 = Carbonic anhydrase 4 (Homo sapiens, UniProt P22748); experiment: Inhibition of recombinant human carbonic anhydrase 4 incubated for 15 mins prior to testing measured for 10 to 100 secs by phenol red-based stopped-flow CO2 hydration assay
Sequence of Carbonic anhydrase 4 (P22748 whole entry): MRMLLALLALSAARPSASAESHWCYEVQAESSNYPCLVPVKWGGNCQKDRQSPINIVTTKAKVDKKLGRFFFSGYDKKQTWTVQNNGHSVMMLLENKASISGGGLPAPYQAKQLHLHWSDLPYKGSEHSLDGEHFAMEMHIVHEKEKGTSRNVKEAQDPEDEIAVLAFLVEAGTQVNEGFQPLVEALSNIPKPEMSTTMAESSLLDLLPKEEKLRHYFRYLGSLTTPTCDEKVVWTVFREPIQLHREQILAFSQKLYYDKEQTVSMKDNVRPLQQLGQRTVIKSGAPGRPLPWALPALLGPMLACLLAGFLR

Carbonic anhydrase 1 = Carbonic anhydrase 1 (Homo sapiens, UniProt P00915); experiment: Inhibition of recombinant human carbonic anhydrase 1 incubated for 15 mins prior to testing measured for 10 to 100 secs by phenol red-based stopped-flow CO2 hydration assay
Sequence of Carbonic anhydrase 1 (P00915 whole entry): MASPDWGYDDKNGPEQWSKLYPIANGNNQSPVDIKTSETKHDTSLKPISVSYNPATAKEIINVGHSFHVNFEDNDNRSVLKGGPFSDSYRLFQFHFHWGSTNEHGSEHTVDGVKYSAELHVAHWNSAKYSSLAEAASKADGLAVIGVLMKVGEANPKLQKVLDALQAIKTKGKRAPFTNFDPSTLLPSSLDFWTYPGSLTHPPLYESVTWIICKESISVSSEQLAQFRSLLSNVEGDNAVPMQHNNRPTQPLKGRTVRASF

Carbonic anhydrase 2 = Carbonic anhydrase 2 (Homo sapiens, UniProt P00918); experiment: Inhibition of recombinant human carbonic anhydrase 2 incubated for 15 mins prior to testing measured for 10 to 100 secs by phenol red-based stopped-flow CO2 hydration assay
Carbonic anhydrase 9 = Carbonic anhydrase 9 (Homo sapiens, UniProt Q16790); experiment: Inhibition of recombinant human carbonic anhydrase 9 incubated for 15 mins prior to testing measured for 10 to 100 secs by phenol red-based stopped-flow CO2 hydration assay
Homo sapiens = species: Homo sapiens; experiment: Selectivity ratio of Ki for inhibition of recombinant human carbonic anhydrase 2 to Ki for Ki for inhibition of recombinant human carbonic anhydrase 9

Cc1cccc(N2CCN(C(=O)Nc3ccc(OS(N)(=O)=O)cc3)CC2)c1C
Ki (Carbonic anhydrase 4): 1.09 µM

COc1cc(-c2ccnc(N3CCN(C(=O)Nc4ccc(OS(N)(=O)=O)cc4)CC3)n2)cc(OC)c1OC
Ki (Carbonic anhydrase 1): 5.28 µM
Ki (Carbonic anhydrase 2): 0.0068 µM
Ki (Carbonic anhydrase 4): 0.28 µM
Ki (Carbonic anhydrase 9): 24.2 µM

COc1ccc(N2CCN(C(=O)Nc3ccc(OS(N)(=O)=O)cc3)CC2)cc1
Ki (Carbonic anhydrase 4): 1.63 µM

CCCCCCCCN1CCN(C(=O)Nc2ccc(OS(N)(=O)=O)cc2)CC1
Ki (Carbonic anhydrase 1): 0.752 µM
Ki (Carbonic anhydrase 2): 0.0159 µM
Ki (Carbonic anhydrase 4): 4.8 µM
Ki (Carbonic anhydrase 9): 31.4 µM

Cc1cccc(-c2ccnc(N3CCN(C(=O)Nc4ccc(OS(N)(=O)=O)cc4)CC3)n2)c1
Ki (Carbonic anhydrase 1): 4.07 µM
Ki (Carbonic anhydrase 2): 0.207 µM
Ki (Carbonic anhydrase 4): 1.32 µM
Ki (Carbonic anhydrase 9): 93.3 µM

NS(=O)(=O)Oc1ccc(NC(=O)N2CCN(c3nccc(-c4cccc(C(F)(F)F)c4)n3)CC2)cc1
Ki (Carbonic anhydrase 1): 3.47 µM
Ki (Carbonic anhydrase 2): 0.0587 µM
Ki (Carbonic anhydrase 4): 0.458 µM
Ki (Carbonic anhydrase 9): 27.1 µM

Cc1ccccc1N1CCN(C(=O)Nc2ccc(OS(N)(=O)=O)cc2)CC1
Ki (Carbonic anhydrase 1): 0.692 µM
Ki (Carbonic anhydrase 2): 0.0569 µM
Ki (Carbonic anhydrase 4): 0.759 µM
Ki (Carbonic anhydrase 9): 29.7 µM

NS(=O)(=O)Oc1ccc(NC(=O)N2CCN(c3ccc(Cl)c(Cl)c3)CC2)cc1
Ki (Carbonic anhydrase 1): 0.919 µM
Ki (Carbonic anhydrase 2): 0.0454 µM
Ki (Carbonic anhydrase 4): 1.64 µM

NS(=O)(=O)Oc1ccc(NC(=O)N2CCN(Cc3cc4ccccc4o3)CC2)cc1
Ki (Carbonic anhydrase 1): 0.76 µM
Ki (Carbonic anhydrase 2): 0.0362 µM
Ki (Carbonic anhydrase 9): 32.7 µM

NS(=O)(=O)Oc1ccc(NC(=O)N2CCN(c3nccc(-c4ccccc4)n3)CC2)cc1
Ki (Carbonic anhydrase 1): 2.37 µM
Ki (Carbonic anhydrase 2): 0.706 µM
Ki (Carbonic anhydrase 4): 4.1 µM
Ki (Carbonic anhydrase 9): 156 µM

COc1ccc(-c2ccnc(N3CCN(C(=O)Nc4ccc(OS(N)(=O)=O)cc4)CC3)n2)cc1
Ki (Carbonic anhydrase 1): 3.93 µM
Ki (Carbonic anhydrase 2): 0.0291 µM
Ki (Carbonic anhydrase 4): 0.384 µM
Ki (Carbonic anhydrase 9): 31.8 µM

Cc1cccc(N2CCN(C(=O)Nc3ccc(OS(N)(=O)=O)cc3)CC2)c1
Ratio Ki (Homo sapiens): 16

CCCCCCCCCCN1CCN(C(=O)Nc2ccc(OS(N)(=O)=O)cc2)CC1
Ki (Carbonic anhydrase 1): 0.68 µM
Ki (Carbonic anhydrase 2): 0.021 µM
Ki (Carbonic anhydrase 4): 4.19 µM
Ki (Carbonic anhydrase 9): 32.2 µM

NS(=O)(=O)Oc1ccc(NC(=O)N2CCN(c3ccccc3)CC2)cc1
Ratio Ki (Homo sapiens): 7

NS(=O)(=O)Oc1ccc(NC(=O)N2CCN(c3nccc(-c4cccc(Br)c4)n3)CC2)cc1
Ki (Carbonic anhydrase 1): 7.77 µM
Ki (Carbonic anhydrase 2): 0.124 µM
Ki (Carbonic anhydrase 4): 0.831 µM
Ki (Carbonic anhydrase 9): 30.5 µM

NS(=O)(=O)Oc1ccc(NC(=O)N2CCN(c3ccc(Cl)cc3)CC2)cc1
Ki (Carbonic anhydrase 4): 2.59 µM

COc1cccc(N2CCN(C(=O)Nc3ccc(OS(N)(=O)=O)cc3)CC2)c1
Ki (Carbonic anhydrase 4): 0.994 µM
